# Test results published in patent US20240376099A1, “COMPOUNDS AND COMPOSITIONS AS INHIBITORS OF ENDOSOMAL TOLL-LIKE RECEPTORS” (Novartis AG, priority 2016, published 2024).
# Target: T1, TLR8 (Homo sapiens, UniProt Q9NR97)
# T1 sequence (Q9NR97 27-1041): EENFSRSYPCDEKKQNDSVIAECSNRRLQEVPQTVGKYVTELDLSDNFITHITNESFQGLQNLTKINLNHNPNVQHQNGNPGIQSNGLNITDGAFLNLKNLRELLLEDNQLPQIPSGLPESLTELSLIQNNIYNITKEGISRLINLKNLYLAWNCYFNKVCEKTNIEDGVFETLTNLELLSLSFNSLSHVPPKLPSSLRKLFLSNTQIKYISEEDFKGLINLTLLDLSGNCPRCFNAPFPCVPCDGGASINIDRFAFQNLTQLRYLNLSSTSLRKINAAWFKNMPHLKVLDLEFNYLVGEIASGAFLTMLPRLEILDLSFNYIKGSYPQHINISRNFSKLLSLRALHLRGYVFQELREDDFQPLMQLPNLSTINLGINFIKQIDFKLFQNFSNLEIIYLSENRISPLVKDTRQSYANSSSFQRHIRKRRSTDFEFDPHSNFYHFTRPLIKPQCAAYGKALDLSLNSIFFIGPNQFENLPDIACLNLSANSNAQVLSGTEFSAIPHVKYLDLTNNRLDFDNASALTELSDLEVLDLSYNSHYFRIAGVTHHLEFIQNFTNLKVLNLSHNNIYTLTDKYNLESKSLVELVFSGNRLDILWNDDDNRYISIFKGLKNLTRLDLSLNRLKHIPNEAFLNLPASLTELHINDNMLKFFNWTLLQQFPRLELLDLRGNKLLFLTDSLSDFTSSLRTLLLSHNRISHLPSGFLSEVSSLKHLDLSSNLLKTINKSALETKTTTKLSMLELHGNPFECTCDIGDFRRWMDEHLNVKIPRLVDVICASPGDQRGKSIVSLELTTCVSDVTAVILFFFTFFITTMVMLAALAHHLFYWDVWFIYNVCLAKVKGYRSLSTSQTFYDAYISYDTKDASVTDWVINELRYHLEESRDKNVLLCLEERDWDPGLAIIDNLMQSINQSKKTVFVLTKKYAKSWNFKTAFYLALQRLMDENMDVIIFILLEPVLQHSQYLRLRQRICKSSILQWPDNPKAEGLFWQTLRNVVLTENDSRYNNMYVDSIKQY
# Assay: huPBMC TLR8 Antagonist IL-6 TR-FRET Assay
# Format: cell-based
# Parameters: Fresh blood was collected from normal human donors; endogenous in cells; host or cells: human PBMCs from fresh donor blood
# Conditions: human PBMCs stimulated with ssRNA40 1 μg/ml (DOTAP), 14-16 hrs; IL-6 TR-FRET read-out
# Method in brief: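 Human PBMCs from fresh donor blood (150,000 cells/well) stimulated 14–16 h at 37 °C with DOTAP-complexed ssRNA40 (final 1 μg/ml for TLR8, 10 μg/mL for TLR7) or ODN2216 (final 0.3 μM, TLR9), 0.25% DMSO, ten-point 1/3 compound dilutions. Supernatant IL-6 read by HTRF (TLR8); IFNα by IFNα2b AlphaLISA (TLR7/TLR9).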
row,IC50,Compound
1,0.63 µM,"Cc1cc(N2CCc3c(c(C(F)(F)F)nn3CC34CCC(N)(CC3)CC4)C2)c2cnn(C)c2n1 [compound 45, 4-((5-(1,6-dimethyl-1H-pyrazolo[3,4-b]pyridin-4-yl)-3-(trifluoromethyl)-4,5,6,7-tetrahydro-1H-pyrazolo[4,3-c]pyridin-1-yl)methyl)bicyclo[2.2.2]octan-1-amine]"
2,0.13 µM,"Cc1cc(N2CCc3c(c(C)nn3CC34CCC(NCC(=O)N5CCCCC5)(CC3)CC4)C2)c2cnn(C)c2n1 [compound 99, 2-((4-((5-(1,6-dimethyl-1H-pyrazolo[3,4-b]pyridin-4-yl)-3-methyl-4,5,6,7-tetrahydro-1H-pyrazolo[4,3-c]pyridin-1-yl)methyl)bicyclo[2.2.2]octan-1-yl)amino)-1-(piperidin-1-yl)ethanone]"
3,0.015 µM,"Cc1cc(N2CCc3c(c(C)nn3CC34CCC(NC(=O)CN5CCCC5)(CC3)CC4)C2)c2cnn(C)c2n1 [compound 100, N-(4-((5-(1,6-dimethyl-1H-pyrazolo[3,4-b]pyridin-4-yl)-3-methyl-4,5,6,7-tetrahydro-1H-pyrazolo[4,3-c]pyridin-1-yl)methyl)bicyclo[2.2.2]octan-1-yl)-2-(pyrrolidin-1-yl)acetamide]"
4,0.366 µM,"COCCNC12CCC(Cn3nc(C)c4c3CCN(c3cc(C)nc5c3cnn5C)C4)(CC1)OC2 [compound 102, 1-((5-(1,6-dimethyl-1H-pyrazolo[3,4-b]pyridin-4-yl)-3-methyl-4,5,6,7-tetrahydro-1H-pyrazolo[4,3-c]pyridin-1-yl)methyl)-N-(2-methoxyethyl)-2-oxabicyclo[2.2.2]octan-4-amine]"
5,0.027 µM,"Cc1cc(N2CCc3c(c(C)nn3CC34CCC(NC(=O)CCN(C)C)(CC3)CC4)C2)c2cnn(C)c2n1 [compound 105, N-(4-((5-(1,6-dimethyl-1H-pyrazolo[3,4-b]pyridin-4-yl)-3-methyl-4,5,6,7-tetrahydro-1H-pyrazolo[4,3-c]pyridin-1-yl)methyl)bicyclo[2.2.2]octan-1-yl)-3-(dimethylamino)propanamide]"
6,0.168 µM,"Cc1cc(N2CCc3c(c(C)nn3CC34CCC(NCC(=O)N5CCCC5)(CC3)CC4)C2)c2cnn(C)c2n1 [compound 106, 2-((4-((5-(1,6-dimethyl-1H-pyrazolo[3,4-b]pyridin-4-yl)-3-methyl-4,5,6,7-tetrahydro-1H-pyrazolo[4,3-c]pyridin-1-yl)methyl)bicyclo[2.2.2]octan-1-yl)amino)-1-(pyrrolidin-1-yl)ethanone]"
7,0.006 µM,"Cc1cc(N2CCc3c(c(C)nn3CC34CCC(N5CCO[C@H](C)C5)(CC3)CC4)C2)c2cnn(C)c2n1 [compound 107, (R)-4-(4-((5-(1,6-dimethyl-1H-pyrazolo[3,4-b]pyridin-4-yl)-3-methyl-4,5,6,7-tetrahydro-1H-pyrazolo[4,3-c]pyridin-1-yl)methyl)bicyclo[2.2.2]octan-1-yl)-2-methylmorpholine]"
8,0.016 µM,"Cc1cc(N2CCc3c(c(C)nn3CC34CCC(N5CCO[C@@H](C)C5)(CC3)CC4)C2)c2cnn(C)c2n1 [compound 109, (S)-4-(4-((5-(1,6-dimethyl-1H-pyrazolo[3,4-b]pyridin-4-yl)-3-methyl-4,5,6,7-tetrahydro-1H-pyrazolo[4,3-c]pyridin-1-yl)methyl)bicyclo[2.2.2]octan-1-yl)-2-methylmorpholine]"
9,0.016 µM,"Cc1cc(N2CCc3c(c(C)nn3CC34CCC(N5C[C@@H](C)O[C@@H](C)C5)(CC3)CC4)C2)c2cnn(C)c2n1 [compound 110, (2S,6R)-4-(4-((5-(1,6-dimethyl-1H-pyrazolo[3,4-b]pyridin-4-yl)-3-methyl-4,5,6,7-tetrahydro-1H-pyrazolo[4,3-c]pyridin-1-yl)methyl)bicyclo[2.2.2]octan-1-yl)-2,6-dimethylmorpholine]"
10,0.039 µM,"Cc1cc(N2CCc3c(c(C)nn3CC34CCC(N5C[C@H](C)O[C@@H](C)C5)(CC3)CC4)C2)c2cnn(C)c2n1 [compound 111, (2S,6S)-4-(4-((5-(1,6-dimethyl-1H-pyrazolo[3,4-b]pyridin-4-yl)-3-methyl-4,5,6,7-tetrahydro-1H-pyrazolo[4,3-c]pyridin-1-yl)methyl)bicyclo[2.2.2]octan-1-yl)-2,6-dimethylmorpholine]"
11,0.056 µM,"Cc1cc(N2CCc3c(c(C)nn3CC34CCC(NCC5CCC5)(CC3)CO4)C2)c2cnn(C)c2n1 [compound 112, N-(cyclobutylmethyl)-1-((5-(1,6-dimethyl-1H-pyrazolo[3,4-b]pyridin-4-yl)-3-methyl-4,5,6,7-tetrahydro-1H-pyrazolo[4,3-c]pyridin-1-yl)methyl)-2-oxabicyclo[2.2.2]octan-4-amine]"
12,0.016 µM,"Cc1cc(N2CCc3c(c(C)nn3CC34CCC(N5C[C@@H](C)O[C@H](C)C5)(CC3)CC4)C2)c2cnn(C)c2n1 [compound 113, (2R,6R)-4-(4-((5-(1,6-dimethyl-1H-pyrazolo[3,4-b]pyridin-4-yl)-3-methyl-4,5,6,7-tetrahydro-1H-pyrazolo[4,3-c]pyridin-1-yl)methyl)bicyclo[2.2.2]octan-1-yl)-2,6-dimethylmorpholine]"
13,0.015 µM,"CCNCC(=O)NC12CCC(Cn3nc(C)c4c3CCN(c3cc(C)nc5c3cnn5C)C4)(CC1)CC2 [compound 114, N-(4-((5-(1,6-dimethyl-1H-pyrazolo[3,4-b]pyridin-4-yl)-3-methyl-4,5,6,7-tetrahydro-1H-pyrazolo[4,3-c]pyridin-1-yl)methyl)bicyclo[2.2.2]octan-1-yl)-2-(ethylamino)acetamide]"
14,0.245 µM,"Cc1cc(N2CCc3c(c(C)nn3CC34CCC(NC(=O)CCN)(CC3)CC4)C2)c2cnn(C)c2n1 [compound 115, 3-amino-N-(4-((5-(1,6-dimethyl-1H-pyrazolo[3,4-b]pyridin-4-yl)-3-methyl-4,5,6,7-tetrahydro-1H-pyrazolo[4,3-c]pyridin-1-yl)methyl)bicyclo[2.2.2]octan-1-yl)propanamide]"
15,0.068 µM,"Cc1cc(N2CCc3c(c(C)nn3CC34CCC(N5CC6(COC6)C5)(CC3)CC4)C2)c2cnn(C)c2n1 [compound 116, 6-(4-((5-(1,6-dimethyl-1H-pyrazolo[3,4-b]pyridin-4-yl)-3-methyl-4,5,6,7-tetrahydro-1H-pyrazolo[4,3-c]pyridin-1-yl)methyl)bicyclo[2.2.2]octan-1-yl)-2-oxa-6-azaspiro[3.3]heptane]"
16,0.236 µM,"CN[C@H](C)C(=O)NC12CCC(Cn3nc(C)c4c3CCN(c3cc(C)nc5c3cnn5C)C4)(CC1)CC2 [compound 117, (R)-N-(4-((5-(1,6-dimethyl-1H-pyrazolo[3,4-b]pyridin-4-yl)-3-methyl-4,5,6,7-tetrahydro-1H-pyrazolo[4,3-c]pyridin-1-yl)methyl)bicyclo[2.2.2]octan-1-yl)-2-(methylamino)propanamide]"
17,0.197 µM,CN[C@@H](C)C(=O)NC12CCC(Cn3nc(C)c4c3CCN(c3cc(C)nc5c3cnn5C)C4)(CC1)CC2 [compound 118]
18,0.039 µM,"CNCC(=O)NC12CCC(Cn3nc(C)c4c3CCN(c3cc(C)nc5c3cnn5C)C4)(CC1)CC2 [compound 121, N-(4-((5-(1,6-dimethyl-1H-pyrazolo[3,4-b]pyridin-4-yl)-3-methyl-4,5,6,7-tetrahydro-1H-pyrazolo[4,3-c]pyridin-1-yl)methyl)bicyclo[2.2.2]octan-1-yl)-2-(methylamino)acetamide]"
19,0.121 µM,"Cc1cc(N2CCc3c(c(C)nn3CC34CCC(NCC(C)(C)O)(CC3)CC4)C2)c2cnn(C)c2n1 [compound 123, 1-((4-((5-(1,6-dimethyl-1H-pyrazolo[3,4-b]pyridin-4-yl)-3-methyl-4,5,6,7-tetrahydro-1H-pyrazolo[4,3-c]pyridin-1-yl)methyl)bicyclo[2.2.2]octan-1-yl)amino)-2-methylpropan-2-ol]"
20,> 10 µM,"CCNCC(=O)NC12CCC(Cn3nc(C)c4c3CCN(c3cc(C)nc5cn[nH]c35)C4)(CC1)CC2 [compound 124, 2-(ethylamino)-N-(4-((3-methyl-5-(5-methyl-1H-pyrazolo[4,3-b]pyridin-7-yl)-4,5,6,7-tetrahydro-1H-pyrazolo[4,3-c]pyridin-1-yl)methyl)bicyclo[2.2.2]octan-1-yl)acetamide]"
